Laboratory results taken from PubChem BioAssay AID256 (DTP/NCI, 2004).
Values joined by “and” are separate entries in the source; they are usually repeats but may differ in a detail not shown here. Equal values may be shown once. Toxic doses and inconclusive results are not listed. The calls were made as follows: active = survival T/C of 150% or more; inactive = T/C below 125% in these data.

Test system: CD2F1 mice, L1210 leukemia ip, survival T/C
Experiment: NCI In Vivo Anticancer Drug Screen. Data for tumor model L1210 Leukemia (intraperitoneal) in CD2F1 (CDF1) mice
Details: higher = longer survival
Summary of the method: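 Activity against a transplanted murine tumor was judged by comparing the compound group with a vehicle group. The outcome in the treated animals was divided by that in the controls.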

[1] = endpoint: mean survival time, dose: 12.5 mg/kg/injection, schedule: Q04DX003 (ip), vehicle: saline with Tween-80
[2] = endpoint: mean survival time, dose: 25.0 mg/kg/injection, schedule: Q04DX003 (ip), vehicle: saline with Tween-80
[3] = endpoint: mean survival time, dose: 50.0 mg/kg/injection, schedule: Q04DX002 (ip), vehicle: saline with Tween-80
[4] = endpoint: mean survival time, dose: 100.0 mg/kg/injection, schedule: Q04DX002 (ip), vehicle: saline with Tween-80
[5] = endpoint: mean survival time, dose: 200.0 mg/kg/injection, schedule: Q04DX002 (ip), vehicle: saline with Tween-80
[6] = endpoint: mean survival time, dose: 100.0 mg/kg/injection, schedule: Q04DX003 (ip), vehicle: saline
[7] = endpoint: mean survival time, dose: 200.0 mg/kg/injection, schedule: Q04DX003 (ip), vehicle: saline
[8] = endpoint: mean survival time, dose: 400.0 mg/kg/injection, schedule: Q04DX003 (ip), vehicle: saline
[9] = endpoint: mean survival time, dose: 100.0 mg/kg/injection, schedule: Q01DX009 (ip), vehicle: saline with Tween-80
[10] = endpoint: mean survival time, dose: 200.0 mg/kg/injection, schedule: Q01DX009 (ip), vehicle: saline with Tween-80
[11] = endpoint: mean survival time, dose: 400.0 mg/kg/injection, schedule: Q01DX009 (ip), vehicle: saline with Tween-80
[12] = endpoint: mean survival time, dose: 200.0 mg/kg/injection, schedule: Q04DX003 (ip), vehicle: saline with Tween-80
[13] = endpoint: mean survival time, dose: 400.0 mg/kg/injection, schedule: Q04DX003 (ip), vehicle: saline with Tween-80
[14] = endpoint: mean survival time, dose: 400.0 mg/kg/injection, schedule: Q04DX002 (ip), vehicle: saline with Tween-80
[15] = endpoint: mean survival time, dose: 100.0 mg/kg/injection, schedule: Q04DX003 (ip), vehicle: saline with Tween-80

Measured: T/C

[Br][Pt+2][Br].[NH-]C(CC([NH-])c1ccccc1)c1ccccc1 (stereo not drawn)
inactive: [1] 101 % of control and 107 % of control and 112 % of control | [2] 102 % of control and 89 % of control | endpoint: mean survival time, dose: 50.0 mg/kg/injection, schedule: Q04DX003 (ip), vehicle: saline with Tween-80 91 % of control

C1CC2(CCC13CO3)CO2 (stereo not drawn)
inactive: endpoint: mean survival time, dose: 25.0 mg/kg/injection, schedule: Q04DX002 (ip), vehicle: saline with Tween-80 91 % of control | [3] 91 % of control and 103 % of control | endpoint: mean survival time, dose: 100.0 mg/kg/injection, schedule: Q04DX002 (ip), vehicle: Klucel (hydroxypropylcellulose) (HPC) 102 % of control | [4] 91 % of control and 107 % of control | endpoint: mean survival time, dose: 200.0 mg/kg/injection, schedule: Q04DX002 (ip), vehicle: Klucel (hydroxypropylcellulose) (HPC) 112 % of control | [5] 100 % of control and 119 % of control | endpoint: mean survival time, dose: 400.0 mg/kg/injection, schedule: Q04DX002 (ip), vehicle: Klucel (hydroxypropylcellulose) (HPC) 119 % of control | endpoint: mean survival time, dose: 600.0 mg/kg/injection, schedule: Q04DX002 (ip), vehicle: Klucel (hydroxypropylcellulose) (HPC) 119 % of control | endpoint: median survival time, dose: 50.0 mg/kg/injection, schedule: Q04DX002 (ip), vehicle: saline with Tween-80 102 % of control | endpoint: median survival time, dose: 100.0 mg/kg/injection, schedule: Q04DX002 (ip), vehicle: saline with Tween-80 105 % of control | endpoint: median survival time, dose: 200.0 mg/kg/injection, schedule: Q04DX002 (ip), vehicle: saline with Tween-80 105 % of control | endpoint: median survival time, dose: 400.0 mg/kg/injection, schedule: Q04DX002 (ip), vehicle: saline with Tween-80 109 % of control | endpoint: median survival time, dose: 800.0 mg/kg/injection, schedule: Q04DX002 (ip), vehicle: saline with Tween-80 114 % of control

CCN(C(=O)C(F)(F)F)C(C)(C)C(SSSC(c1ccc(Cl)cc1)C(C)(C)N(CC)C(=O)C(F)(F)F)c1ccc(Cl)cc1 (stereo not drawn)
inactive: [6] 103 % of control | [7] 105 % of control | [8] 86 % of control

C[NH-].C[NH-].[Cl][Pt+2][Cl]
inactive: endpoint: mean survival time, dose: 2.5 mg/kg/injection, schedule: Q04DX003 (ip), vehicle: water 91 % of control | endpoint: mean survival time, dose: 5.0 mg/kg/injection, schedule: Q04DX003 (ip), vehicle: water 120 % of control | endpoint: mean survival time, dose: 10.0 mg/kg/injection, schedule: Q04DX003 (ip), vehicle: water 92 % of control

CC(=O)CC(C)=O.CC(=O)CC(C)=O.CC(=O)CC(C)=O.[Fe]
inactive: endpoint: mean survival time, dose: 6.25 mg/kg/injection, schedule: Q01DX009 (ip), vehicle: saline with Tween-80 93 % of control | endpoint: mean survival time, dose: 12.5 mg/kg/injection, schedule: Q01DX009 (ip), vehicle: saline with Tween-80 97 % of control | [1] 102 % of control | [2] 98 % of control

CCCCNC(=S)Nc1ccccc1
inactive: endpoint: mean survival time, dose: 50.0 mg/kg/injection, schedule: Q01DX009 (ip), vehicle: saline with Tween-80 100 % of control | [9] 105 % of control | [10] 86 % of control

COC(O)C1OC(c2ccccc2)OC2C(CO)OC(c3ccccc3)OC12 (stereo not drawn)
inactive: [9] 90 % of control | [10] 90 % of control | [11] 90 % of control

CN(C)C(=O)c1cccc(COc2ccc(N)cc2Cl)c1
inactive: endpoint: mean survival time, dose: 50.0 mg/kg/injection, schedule: Q01DX009 (ip), vehicle: saline 113 % of control | [9] 90 % of control | endpoint: mean survival time, dose: 100.0 mg/kg/injection, schedule: Q01DX009 (ip), vehicle: saline 104 % of control | [10] 93 % of control | endpoint: mean survival time, dose: 200.0 mg/kg/injection, schedule: Q01DX009 (ip), vehicle: saline 105 % of control | [12] 87 % of control | [11] 95 % of control | [13] 89 % of control

CCCCO.[Ti]
inactive: [9] 103 % of control | [10] 97 % of control | [11] 104 % of control

C(=Nc1ccc2ccccc2c1)c1ccccc1
inactive: [3] 91 % of control | [4] 95 % of control | [5] 95 % of control | [14] 98 % of control

CCCCOC(=O)c1cc([N+](=O)[O-])c(Sc2ncnc3nc[nH]c23)c([N+](=O)[O-])c1
inactive: endpoint: mean survival time, dose: 0.63 mg/kg/injection, schedule: Q01DX005 (ip), vehicle: other 106 % of control | endpoint: mean survival time, dose: 1.25 mg/kg/injection, schedule: Q01DX005 (ip), vehicle: other 104 % of control | endpoint: mean survival time, dose: 2.5 mg/kg/injection, schedule: Q01DX005 (ip), vehicle: other 106 % of control | endpoint: mean survival time, dose: 5.0 mg/kg/injection, schedule: Q01DX005 (ip), vehicle: other 106 % of control | endpoint: mean survival time, dose: 10.0 mg/kg/injection, schedule: Q01DX005 (ip), vehicle: other 114 % of control | endpoint: mean survival time, dose: 15.0 mg/kg/injection, schedule: Q01DX005 (ip), vehicle: other 120 % of control

CCOC(=O)c1ccc(N(CC)CC)cc1
inactive: [9] 95 % of control | [15] 104 % of control | [10] 92 % of control | [12] 98 % of control | [11] 95 % of control | [13] 94 % of control

CC1(CBr)Oc2ccccc2O1
inactive: endpoint: mean survival time, dose: 100.0 mg/kg/injection, schedule: Q04DX003 (ip), vehicle: Klucel (hydroxypropylcellulose) (HPC) 97 % of control | endpoint: mean survival time, dose: 200.0 mg/kg/injection, schedule: Q04DX003 (ip), vehicle: Klucel (hydroxypropylcellulose) (HPC) 88 % of control | endpoint: mean survival time, dose: 400.0 mg/kg/injection, schedule: Q04DX003 (ip), vehicle: Klucel (hydroxypropylcellulose) (HPC) 94 % of control

CCCCCCCC(=O)/C=C/Sc1n[nH]c(=O)[nH]c1=O
inactive: endpoint: mean survival time, dose: 12.5 mg/kg/injection, schedule: Q01DX005 (ip), vehicle: distilled water + Tween-80 94 % of control | endpoint: mean survival time, dose: 25.0 mg/kg/injection, schedule: Q01DX005 (ip), vehicle: distilled water + Tween-80 102 % of control | endpoint: mean survival time, dose: 50.0 mg/kg/injection, schedule: Q01DX005 (ip), vehicle: distilled water + Tween-80 107 % of control

S=C1SCCN1C1CCCCC1
inactive: [9] 102 % of control | [15] 92 % of control | [10] 96 % of control | [12] 96 % of control | [11] 93 % of control | [13] 92 % of control

CCOC(=O)CC1NCCS1 (stereo not drawn)
inactive: endpoint: mean survival time, dose: 100.0 mg/kg/injection, schedule: Q01DX001 (ip), vehicle: saline 97 % of control | endpoint: mean survival time, dose: 200.0 mg/kg/injection, schedule: Q01DX001 (ip), vehicle: saline 96 % of control | endpoint: mean survival time, dose: 400.0 mg/kg/injection, schedule: Q01DX001 (ip), vehicle: saline 94 % of control

CC(C)(C)C(=O)CC(=O)C(C)(C)C.CC(C)(C)C(=O)CC(=O)C(C)(C)C.[Cu]
inactive: endpoint: mean survival time, dose: 9.5 mg/kg/injection, schedule: Q01DX009 (ip), vehicle: saline with Tween-80 98 % of control | endpoint: mean survival time, dose: 9.5 mg/kg/injection, schedule: Q04DX003 (ip), vehicle: saline with Tween-80 90 % of control | endpoint: mean survival time, dose: 19.0 mg/kg/injection, schedule: Q01DX009 (ip), vehicle: saline with Tween-80 102 % of control | endpoint: mean survival time, dose: 19.0 mg/kg/injection, schedule: Q04DX003 (ip), vehicle: saline with Tween-80 90 % of control | endpoint: mean survival time, dose: 38.0 mg/kg/injection, schedule: Q04DX003 (ip), vehicle: saline with Tween-80 91 % of control

O=C(O)c1cc(Br)c(-c2c(Br)cc(C(=O)O)cc2[N+](=O)[O-])c([N+](=O)[O-])c1
inactive: [9] 98 % of control | [15] 86 % of control | [10] 100 % of control | [12] 94 % of control | [13] 91 % of control

NC(=S)S
inactive: [4] 102 % of control | [5] 113 % of control | [14] 102 % of control

NC(=O)C(Cl)(Cl)Cl
inactive: [9] 107 % of control | [6] 103 % of control | [10] 104 % of control | [7] 99 % of control | [11] 103 % of control | [8] 99 % of control
